In one data set the test system is Escherichia coli. Conditions: stated as demonstrated; cited from earlier work.
Data set [1] can be described thus: in vitro biochemical assay for beta-etherase activity on fluorescent substrate MUAV (4MU formation, clarified E. coli cell extracts). From the text: The model substrate synthesis 150 for use in the biochemical screening for selective activity can be outsourced through a contract research organization (CRO). The enzyme discovery effort can initially be focused on identifying potential beta-etherase candidate genes identified through bioinformatic methods. […] The fluorescent substrate α-O-(β-methylumbelliferyl)acetovanillone (MUAV), for example, can be used in in vitro assays to identify beta-etherase function (Acme Biosciences, Mt. View, Calif.). The formation of 4 methylumbelliferone (4MU) upon hydrolysis of the aryl ether bond can be monitored by fluorescence, for example, at λex=365 nm and λem=450 nm (or 460 nm).
The enzyme screening 155 is done to identify novel etherases 160. […] Expression of the beta-etherase genes can be done in 5 ml or 25 ml samples of the recombinant E. coli strains in LB medium using induction with IPTG. Following induction, and cell harvest, cell pellets can be lysed using the BPER (Invitrogen) cell lysis system. […] The formation of 4 methylumbelliferone (4MU) upon hydrolysis of the aryl ether bond in MUAV can be monitored by fluorescence at λex=365 nm and λem=460 nm, and can provide quantitative measurement of beta-etherase function. Cell extracts of E. coli transformed with the S. paucimobilis ligE and ligF genes can be the assay positive controls. Test or unknown samples can include, for example, E. coli strains expressing putative beta-etherase genes from N. aromaticovorans.
This example describes a method for gene expression in E. coli, as well as beta-etherase biochemical assays. Expression of known and putative beta-etherase genes was performed using 5 ml cultures of the recombinant E. coli strains described herein in Luria Broth medium by induction of gene expression using isopropylthiogalactoside (IPTG) to a final concentration of 0.1 mM. Following induction, and cell harvest, the cells were disrupted using either sonication or the BPER (Invitrogen) cell lysis system.
In vitro reactions were performed in a total volume of 200 ul and contained: 25 mM TrisHCl pH 7.5; 0.5 mM dithiothreitol; 1 mM glutathione; 0.05 mM or 0.1 mM MUAV; 10 ul of clarified cell extract used to initiate the reactions. Following incubation for 2.5 hours at room temperature, a 50 ul sample of the reactions was terminated using 150 uL of 300 mM glycine/NaOH buffer pH 9. The formation of 4 methylumbelliferone (4MU) upon hydrolysis of the aryl ether bond was monitored by the increase in fluorescence at λex=360 nm and λem=450 nm using a Spectramax UV/visible/fluorescent spectrophotometer.
The total protein concentrations of the cell lysates were determined using the BCA reagent system for protein quantification (Pierce).
Induction might be also performed using IPTG concentrations in the range of 0.01-1 mM. Cell disruption might be also performed using toluene permeabilization, French pressure techniques, or using multiple freeze/thaw cycles in conjunction with lysozyme. Assay conditions might be varied to include TrisHCl at 10-150 mM concentrations and in the pH range of 6.5-8.5; 0-2 mM dithiothreitol; 0.05-2 mM glutathione; 0.01-5 mM MUAV substrate; 22-42° C. reaction temperatures. The biochemical assay might be performed as a fixed time point assay with reaction times ranging from 5 minutes-12 hours, or performed continuously without quenching with glycine/NaOH buffer to extract enzyme kinetic parameters.

[2] abbreviates: MUAV substrate, concentration not given.
The mark [3] stands for this setting: reactions containing 0.1 mM MUAV substrate, E. coli cell extracts.

Regarding `O=Cc1ccc(O)c(O)c1O` [2,3,4-trihydroxybenzaldehyde], the “antibacterial activity against Escherichia coli” value in the data set on Escherichia coli is listed as “antibacterial activity”.
Consider `O=Cc1cccc(O)c1O` [2,3-dihydroxybenzaldehyde], for which the “antibacterial activity against Escherichia coli” value in the data set on Escherichia coli was “antibacterial activity”.
With `O=Cc1c(O)cc(O)cc1O` [2,4,6-trihydroxybenzaldehyde], the “antibacterial activity against Escherichia coli” value with Escherichia coli is given as “antibacterial activity”.
For the molecule `O=Cc1ccc(O)cc1O` [2,4-dihydroxybenzaldehyde], the “antibacterial activity against Escherichia coli” value in the data set with Escherichia coli is given as “antibacterial activity”.
On to `O=Cc1cc(O)ccc1O` [2,5-dihydroxybenzaldehyde], for which the “antibacterial activity against Escherichia coli” value with Escherichia coli is reported as “antibacterial activity”.
With `COc1cccc(C=O)c1O` [2-hydroxy-3-methoxybenzaldehyde], the “antibacterial activity against Escherichia coli” value in the data set on Escherichia coli was “antibacterial activity”.
Take `COc1ccc(O)c(C=O)c1` [2-hydroxy-5-methoxybenzaldehyde]: the “antibacterial activity against Escherichia coli” value with Escherichia coli is on record as “antibacterial activity”.
With `O=Cc1ccccc1O` [2-hydroxybenzaldehyde], the “antibacterial activity against Escherichia coli” value with Escherichia coli is recorded as “antibacterial activity”.
In the case of `COc1cc(O)cc(OC)c1C=O` [4-hydroxy-2,6-dimethoxybenzaldehyde], the “antibacterial activity against Escherichia coli” value in the data set with Escherichia coli is reported as “antibacterial activity”.

B1: LigF: S. paucimobilis LigF beta-etherase, positive control polypeptide (protein)
chain: MTLKLYSFGPGANSLKPLATLYEKGLEFEQVFVDPSKFEQHSDWFKKINPRGQVPALWHDGKVVTESTVICEYLEDVFPESGNSLRPADPFKRAEMRVWTKWVDEYFCWCVSTIGWAFGIKAIAQKMSDEEFEEHINKNVPIPEQQLKWRRARNGFPQEMLDEEFRKVGVSVARLEETLSKQDYLVDTGYSLADICNFAIANGLQRPGGFFGDYVNQEKTPGLCAWLDRINARPAIKEMFEKSKREDLLKRQNEKVA
With B1, the “total activity (beta-etherase)” value in data set [1] (setting [2]) is 558 rfu/ug.

B2: LigF2: N. aromaticivorans beta-etherase polypeptide, glutathione S-transferase-like protein, GenBank ABD27301.1 (protein)
chain: MALKYYHAEPLANSLKSMVPLKEKGLAYESIYVDLHKFEQHQPWFTAINPEGQVPVLDHDGTIITHTTVINEYLEDAFPDAQPADAPLRPRDPVGAARMRYWNKFIDEHVMNYVSMHGWHRMVGVIARNIASGDFEKLLESIPLPDQRKKWATARSGFSEADLANATAKIEYALDKVEKQLGETKWLAGDTYTLADINFYSHCGAMVERMFPEMEVARRAPRLCEWRDRVAARPAVAEALKSEDRTAPGLRVWSGEVR
As for B2, the “efficiency relative to S. paucimobilis LigF protein” value in data set [1] (MUAV substrate) is reported as “approximately 2 fold”. The “total activity (beta-etherase)” value in data set [1] (setting [2]) came to 1206 rfu/ug.

B3: ligE: S. paucimobilis ligE beta-etherase, positive control polypeptide (protein)
chain: MARNNTITLYDLQLESGCTISPYVWRTKYALKHKGFDIDIVPGGFTGILERTGGRSERVPVIVDDGEWVLDSWVIAEYLDEKYPDRPMLFEGPTQKNLMKFLDNWLWSTAVGPWFRCYILDYHDLSLPQDRDYVRWSREQWFLGGQRLEDVQAGREDRLPLVPPTLEPFRRILAETKWLGGDQPNFADYSALAVFLWTASVARTPPLTEDDPLRDWLDRGFDLFDGLGRHPGMNPLFGLKLREGDPEPFVRQTGPAGAGGQALNKGPQTTKMPPRVAEKAD
As for B3, in data set [1] (setting [3]), the “total activity (beta-etherase)” value was determined as 7 rfu/ug.

B4: ligE1: N. aromaticivorans beta-etherase polypeptide, glutathione S-transferase-like protein, GenBank ABD26841.1 (protein)
chain: MAANNTITFYDLALSTGATISPFVWATKYALKHKGFDLDVVPGGFTGILERTGGKTERLPAIVDDGEFVLDSWGIVEYLDAKYPDRPVLIPHESVAATLKALDNWFWNAAVGPWMFCFCQDYRDLSLPQDHEYVTHSREKMLGRKLEEVQAGREERLPKISAALEPLRAALAQHQWLGGSSPNYADYRIMGGILFTASVCKTPVLANDDPLRDWIERCLDLYGGLGRHPGLFPLFGLEQREGDPDLFNRAAGQGGIYKRNTGPESTRAETQRITEGMKK
Turning to B4, in data set [1] (MUAV substrate), the “beta-etherase activity (in words)” value is on record as “beta-etherase activity” and the “efficiency relative to S. paucimobilis ligE beta-etherase enzyme” value was “approximately 75 fold”. Moreover, the “total activity (beta-etherase)” value in data set [1] (setting [3]) is given as 529 rfu/ug.

The values are drawn from patent US20120202272A1, “LIGE-TYPE SYSTEMS FOR BIOCONVERSION OF LIGNIN-DERIVED COMPOUNDS” (priority 2010, published 2012).
